The results in this text go back to BindingDB's records for doi:10.1016/S0960-894X(98)00531-9 (Glaxo Wellcome Research and Development, 1999).

Biological target in one experiment: not listed separately
Put plainly: Compound was evaluated for the inhibition of Chymotrypsinogen.
Regarding `N=C(N)CCCC[C@H]1C(=O)O[C@H]2CCC[C@@H]21`, the IC50 is > 100 µM. Same read-out and setting: with `N=C(N)c1cccc(C[C@H]2C(=O)O[C@H]3CCC[C@@H]32)c1` [3-((3R,3aR,6aS)-2-Oxo-hexahydro-cyclopenta[b]furan-3-ylmethyl)-benzamidine; compound with acetic acid] the figure was > 100 µM; with `O=C1O[C@H]2CCC[C@@H]2[C@H]1Cc1ccccc1` [(3R,3aR,6aS)-3-Benzyl-hexahydro-cyclopenta[b]furan-2-one], > 100 µM. For the compound `O=C1O[C@H]2CCC[C@@H]2[C@H]1Sc1ccccc1` [(3R,3aS,6aS)-3-Phenylsulfanyl-hexahydro-cyclopenta[b]furan-2-one], the IC50 was > 0.1 µM.

As to `CC(C)=CC(=O)C[C@@H]1C(=O)O[C@H]2CCC[C@@H]21` [(3S,3aR,6aS)-3-(4-Methyl-2-oxo-pent-3-enyl)-hexahydro-cyclopenta[b]furan-2-one], the IC50 was > 100 µM. For `O=C1O[C@H]2CCC[C@@H]2[C@@H]1Cc1ccccc1` [(3S,3aR,6aS)-3-Benzyl-hexahydro-cyclopenta[b]furan-2-one], the half-maximal inhibitory concentration (IC50) was > 100 µM. The same measure, in the same setting: the value for `O=C1O[C@H]2CCC[C@@H]2[C@@H]1Sc1ccccc1` [(3S,3aS,6aS)-3-Phenylsulfanyl-hexahydro-cyclopenta[b]furan-2-one] was > 100 µM.

The target in the next experiment is T1, Chymotrypsin-C (Homo sapiens, UniProt Q99895).
T1 sequence (Q99895 whole entry): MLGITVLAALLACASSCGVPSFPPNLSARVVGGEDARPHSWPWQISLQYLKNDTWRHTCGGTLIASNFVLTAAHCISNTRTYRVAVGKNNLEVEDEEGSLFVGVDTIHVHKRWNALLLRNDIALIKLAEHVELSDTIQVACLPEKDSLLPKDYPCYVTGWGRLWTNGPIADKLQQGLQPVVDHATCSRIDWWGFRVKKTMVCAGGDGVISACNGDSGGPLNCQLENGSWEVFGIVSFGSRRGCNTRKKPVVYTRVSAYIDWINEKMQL
The experiment is described as follows: ChEBML_49751. How it is done:
Compound was evaluated for the inhibition of Chymotrypsinogen
As for `N=C(N)c1ccc(C[C@H]2C(=O)O[C@H]3CCC[C@@H]32)cc1` [4-((3R,3aR,6aS)-2-Oxo-hexahydro-cyclopenta[b]furan-3-ylmethyl)-benzamidine; compound with acetic acid], the IC50 was > 100 µM.
